Test results published in patent US11174268B2, “Benzenesulfonamide compouds and their use as therapeutic agents” (Xenon Pharmaceuticals Inc., priority 2016, dated 2021).
Structures can show the parent of a compound that is named as a salt. Where two headings read alike, the source gives them in different places.

Key:
NaV1.5 = NaV1.5 (Homo sapiens (Human), UniProt Q14524); assay: Sodium Influx Assay (Flux), NaV1.5
NaV1.6 = NaV1.6 (Homo sapiens (Human), UniProt Q9UQD0); assay: Sodium Influx Assay (Flux), NaV1.6; type: cell-based; conditions: Trex HEK293 cells, ANG2 dye, inactivated state;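 note: Tetracycline-induced cells, compounds applied for one hour at room temperature with modulators holding channels open, IC50 from percent inhibition of sodium influx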
NaV1.1 = NaV1.1 (Homo sapiens (Human), UniProt P35498); assay: Sodium Influx Assay (Flux), NaV1.1; type: cell-based; conditions: Trex HEK293 cells, ANG2 dye, inactivated state;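 note: channels co-expressed with human β1 subunit and held open by modulators, cells exposed to compounds for one hour at room temperature, IC50 from percent inhibition of influx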
[1] = read-out: Flux NaV1.5 IC50, Trex HEK293 cells, ANG2 dye, inactivated state

Sequence of NaV1.5 (Q14524 other isoform, or with tags, fused parts or gaps): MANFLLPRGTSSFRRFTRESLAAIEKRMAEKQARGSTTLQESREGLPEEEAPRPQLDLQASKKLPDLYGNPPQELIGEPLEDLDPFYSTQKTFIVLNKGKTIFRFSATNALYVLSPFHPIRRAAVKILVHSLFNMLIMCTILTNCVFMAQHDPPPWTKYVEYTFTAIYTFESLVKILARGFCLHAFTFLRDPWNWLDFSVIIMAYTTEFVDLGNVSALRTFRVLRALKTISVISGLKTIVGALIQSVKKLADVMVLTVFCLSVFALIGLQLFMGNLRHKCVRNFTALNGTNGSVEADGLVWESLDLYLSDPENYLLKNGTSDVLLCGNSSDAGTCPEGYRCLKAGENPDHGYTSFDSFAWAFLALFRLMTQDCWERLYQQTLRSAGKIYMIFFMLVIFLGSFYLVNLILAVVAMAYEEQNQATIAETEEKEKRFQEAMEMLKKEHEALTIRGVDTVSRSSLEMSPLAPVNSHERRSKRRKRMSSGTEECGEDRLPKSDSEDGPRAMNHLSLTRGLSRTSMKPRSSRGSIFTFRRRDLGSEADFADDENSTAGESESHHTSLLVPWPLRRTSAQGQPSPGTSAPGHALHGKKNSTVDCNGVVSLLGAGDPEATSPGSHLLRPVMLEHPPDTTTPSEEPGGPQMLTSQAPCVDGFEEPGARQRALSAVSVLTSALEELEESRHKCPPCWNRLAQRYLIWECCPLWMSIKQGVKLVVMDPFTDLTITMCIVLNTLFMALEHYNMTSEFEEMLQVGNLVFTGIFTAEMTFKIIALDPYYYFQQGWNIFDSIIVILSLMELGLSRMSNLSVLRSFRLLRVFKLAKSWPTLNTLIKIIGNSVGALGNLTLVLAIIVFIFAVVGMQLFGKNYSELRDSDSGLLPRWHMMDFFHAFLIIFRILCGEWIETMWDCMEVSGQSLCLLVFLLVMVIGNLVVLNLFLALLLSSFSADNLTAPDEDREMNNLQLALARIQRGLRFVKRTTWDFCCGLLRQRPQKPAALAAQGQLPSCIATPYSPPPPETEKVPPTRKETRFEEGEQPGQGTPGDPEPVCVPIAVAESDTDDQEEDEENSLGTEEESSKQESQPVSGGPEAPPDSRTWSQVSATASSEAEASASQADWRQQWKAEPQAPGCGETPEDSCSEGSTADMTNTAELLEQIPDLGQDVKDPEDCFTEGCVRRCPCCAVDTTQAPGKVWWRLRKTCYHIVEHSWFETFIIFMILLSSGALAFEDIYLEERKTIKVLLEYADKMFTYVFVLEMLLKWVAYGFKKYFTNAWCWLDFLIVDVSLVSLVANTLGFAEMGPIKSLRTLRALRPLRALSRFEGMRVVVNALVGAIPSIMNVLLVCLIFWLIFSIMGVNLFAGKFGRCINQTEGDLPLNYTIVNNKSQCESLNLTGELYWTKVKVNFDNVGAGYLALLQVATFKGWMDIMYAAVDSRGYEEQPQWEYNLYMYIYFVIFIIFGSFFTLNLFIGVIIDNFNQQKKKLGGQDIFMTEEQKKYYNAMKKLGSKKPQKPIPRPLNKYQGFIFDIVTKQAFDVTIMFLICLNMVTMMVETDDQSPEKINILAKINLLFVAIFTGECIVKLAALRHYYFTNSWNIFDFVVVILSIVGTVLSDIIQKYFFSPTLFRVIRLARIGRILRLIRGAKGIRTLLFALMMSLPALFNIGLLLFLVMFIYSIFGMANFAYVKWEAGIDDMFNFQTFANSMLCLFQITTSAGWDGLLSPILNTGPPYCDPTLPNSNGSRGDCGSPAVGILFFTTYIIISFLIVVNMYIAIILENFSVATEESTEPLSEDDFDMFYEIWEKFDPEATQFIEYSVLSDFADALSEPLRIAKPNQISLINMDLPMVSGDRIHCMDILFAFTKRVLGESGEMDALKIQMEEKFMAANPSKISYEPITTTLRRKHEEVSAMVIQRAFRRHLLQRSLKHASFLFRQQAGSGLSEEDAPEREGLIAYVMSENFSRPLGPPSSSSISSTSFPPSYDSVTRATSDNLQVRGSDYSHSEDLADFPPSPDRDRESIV

Molecule	IC50 (NaV1.5; [1]) [µM]	IC50 (NaV1.6) [µM]	IC50 (NaV1.1) [µM]	IC50 (NaV1.5) [µM]
2,6-difluoro-4-((2-fluoro-6-((3-hydroxy-3-methylazetidin-1-yl)methyl)benzyl)amino)-N-(thiazol-4-yl)benzenesulfonamide formate [Example 169]	29	0.011	6.38	–
4-((2-((3-(difluoromethyl)azetidin-1-yl)methyl)-6-fluorobenzyl)amino)-2,6-difluoro-N-(thiazol-4-yl)benzenesulfonamide formate [Example 168]	21.7	0.12	17.7	–
C[C@@H](Oc1ccc(S(=O)(=O)Nc2ncns2)cc1Cl)c1ccccc1 (racemic) [Example 87, (R) and (S)-3-chloro-4-(1-phenylethoxy)-N-(1,2,4-thiadiazol-5-yl)benzenesulfonamide]	–	8.6	≥ 30	24.7
CC[C@H](Nc1cc(F)c(S(=O)(=O)Nc2nccs2)cc1Br)c1ccccc1 [Example 1, (S)-5-bromo-2-fluoro-4-((1-phenylpropyl)amino)-N-(thiazol-2-yl)benzenesulfonamide]	8.92	0.12	0.784	–
C[C@H](Nc1cc(F)c(S(=O)(=O)Nc2nccs2)cc1Cl)c1cccc2ccccc12 [Example 2, (S)-5-chloro-2-fluoro-4-((1-(naphthalen-1-yl)ethyl)amino)-N-(thiazol-2-yl)benzenesulfonamide]	8.25	5.02	16	–
C[C@H](Nc1cc(F)c(S(=O)(=O)Nc2nccs2)cc1Cl)c1cccc(C(F)(F)F)c1 [Example 3, (S)-5-chloro-2-fluoro-N-(thiazol-2-yl)-4-((1-(3-(trifluoromethyl)phenyl)ethyl)amino)benzenesulfonamide]	5.25	0.679	3.38	–
C[C@H](Nc1cc(F)c(S(=O)(=O)Nc2cscn2)cc1Cl)c1cccc(Cl)c1F [Example 6, (S)-5-chloro-4-((1-(3-chloro-2-fluorophenyl)ethyl)amino)-2-fluoro-N-(thiazol-4-yl)benzenesulfonamide]	5.52	3.38	3.76	–
C[C@H](Nc1cc(F)c(S(=O)(=O)Nc2nccs2)cc1Cl)c1cccc(Br)c1 [Example 7, (S)-4-((1-(3-bromophenyl)ethyl)amino)-5-chloro-2-fluoro-N-(thiazol-2-yl)benzenesulfonamide]	9.68	0.376	3	–
C[C@H](Nc1cc(F)c(S(=O)(=O)Nc2nccs2)cc1Cl)c1ccc(Cl)cc1 [Example 14, (S)-5-chloro-4-((1-(4-chlorophenyl)ethyl)amino)-2-fluoro-N-(thiazol-2-yl)benzenesulfonamide]	14.4	1.79	4.65	–
C[C@H](Nc1cc(F)c(S(=O)(=O)Nc2nccs2)cc1Cl)c1ccc2ccccc2c1 [Example 15, (S)-5-chloro-2-fluoro-4-((1-(naphthalen-2-yl)ethyl)amino)-N-(thiazol-2-yl)benzenesulfonamide]	23.6	7.15	9.41	–
N#Cc1ccccc1CNc1cc(F)c(S(=O)(=O)Nc2nccs2)cc1Cl [Example 17, 5-chloro-4-((2-cyanobenzyl)amino)-2-fluoro-N-(thiazol-2-yl)benzenesulfonamide]	8.46	0.308	0.494	–
O=S(=O)(Nc1cscn1)c1cc(Cl)c(NC2(c3ccccc3)CCC2)cc1F [Example 18, 5-chloro-2-fluoro-4-((1-phenylcyclobutyl)amino)-N-(thiazol-4-yl)benzenesulfonamide]	11.9	3.35	8.37	–
C[C@H](Nc1c(Cl)cc(S(=O)(=O)Nc2nccs2)cc1Cl)c1ccccc1F [Example 21, (S)-3,5-dichloro-4-((1-(2-fluorophenyl)ethyl)amino)-N-(thiazol-2-yl)benzenesulfonamide]	2.89	3.67	3.63	–
C[C@H](Nc1cc(F)c(S(=O)(=O)Nc2cccc(F)n2)cc1Cl)c1ccccc1Cl [Example 23, (S)-5-chloro-4-((1-(2-chlorophenyl)ethyl)amino)-2-fluoro-N-(6-fluoropyridin-2-yl)benzenesulfonamide]	4.09	1.52	5.4	–
C[C@H](Nc1ccc(S(=O)(=O)Nc2cscn2)cc1Cl)c1ccccc1 [Example 24, (S)-3-chloro-4-((1-phenylethyl)amino)-N-(thiazol-4-yl)benzenesulfonamide]	8.32	4.09	5.85	–
O=S(=O)(Nc1cscn1)c1cc(Cl)c(OC2CCc3c2cccc3C(F)(F)F)cc1F (stereo not drawn) [Example 29, 5-chloro-2-fluoro-N-(thiazol-4-yl)-4-((4-(trifluoromethyl)-2,3-dihydro-1H-inden-1-yl)oxy)benzenesulfonamide]	24.6	30	30	–

Molecule	IC50 (NaV1.5; [1]) [µM]	IC50 (NaV1.6) [µM]	IC50 (NaV1.1) [µM]	IC50 (NaV1.5) [µM]
O=S(=O)(Nc1ncns1)c1ccc(NCc2ccccc2)c(Cl)c1 [Example 33, 4-(Benzylamino)-3-chloro-N-(1,2,4-thiadiazol-5-yl)benzenesulfonamide]	25.8	0.462	2.99	–
CC(CNc1ccc(S(=O)(=O)Nc2ncns2)cc1Cl)c1ccccc1 (stereo not drawn) [Example 34, 3-chloro-4-((2-phenylpropyl)amino)-N-(1,2,4-thiadiazol-5-yl)benzenesulfonamide]	4.91	1.27	0.84	–
O=S(=O)(Nc1ncns1)c1ccc(N[C@@H]2CCc3ccccc32)c(Cl)c1 [Example 35, (R)-3-chloro-4-((2,3-dihydro-1H-inden-1-yl)amino)-N-(1,2,4-thiadiazol-5-yl)benzenesulfonamide]	8.69	0.839	0.301	–
O=S(=O)(Nc1ncns1)c1ccc(N[C@H]2CCc3ccccc32)c(Cl)c1 [Example 36, (S)-3-chloro-4-((2,3-dihydro-1H-inden-1-yl)amino)-N-(1,2,4-thiadiazol-5-yl)benzenesulfonamide]	5.12	1.4	1.34	–
O=S(=O)(Nc1nccs1)c1cc(Cl)c(N[C@H]2CCCc3ccccc32)cc1F [Example 46, (S)-5-chloro-2-fluoro-4-((1,2,3,4-tetrahydronaphthalen-1-yl)amino)-N-(thiazol-2-yl)benzenesulfonamide]	7.04	1.66	0.999	–
C[C@H](Nc1cc(F)c(S(=O)(=O)Nc2nccs2)cc1Cl)c1cccc(Cl)c1 [Example 50, (S)-5-chloro-4-((1-(3-chlorophenyl)ethyl)amino)-2-fluoro-N-(thiazol-2-yl)benzenesulfonamide]	6.07	0.169	1.28	–
C[C@H](Nc1cc(F)c(S(=O)(=O)Nc2nccs2)cc1Cl)c1cc(Cl)cc(Cl)c1 [Example 51, (S)-5-chloro-4-((1-(3,5-dichlorophenyl)ethyl)amino)-2-fluoro-N-(thiazol-2-yl)benzenesulfonamide]	20.6	10.8	4.27	–
C[C@H](Nc1cc(F)c(S(=O)(=O)Nc2nccs2)cc1Cl)c1ccc(F)c(F)c1 [Example 53, (S)-5-chloro-4-((1-(3,4-difluorophenyl)ethyl)amino)-2-fluoro-N-(thiazol-2-yl)benzenesulfonamide]	6.89	0.741	0.726	–
CCC(Nc1cc(F)c(S(=O)(=O)Nc2nccs2)cc1Cl)c1ccc2c(c1)CCCC2 (stereo not drawn) [Example 55, 5-chloro-2-fluoro-4-((1-(5,6,7,8-tetrahydronaphthalen-2-yl)propyl)amino)-N-(thiazol-2-yl)benzenesulfonamide]	21.3	20.7	16.1	–
CCC(Nc1cc(F)c(S(=O)(=O)Nc2nccs2)cc1Cl)c1cccnc1 (stereo not drawn) [Example 58, 5-chloro-2-fluoro-4-((1-(pyridin-3-yl)propyl)amino)-N-(thiazol-2-yl)benzenesulfonamide]	7.09	0.152	2.53	–
O=S(=O)(Nc1cscn1)c1c(F)cc(NCc2c(F)cccc2CN2CC3(COC3)C2)cc1F [Example 153, 4-((2-((2-oxa-6-azaspiro[3.3]heptan-6-yl)methyl)-6-fluorobenzyl)amino)-2,6-difluoro-N-(thiazol-4-yl)benzenesulfonamide formate]	30	–	–	–
O=S(=O)(Nc1cscn1)c1c(F)cc(NCc2c(F)cccc2CN2CCCC2)cc1F [Example 166, 2,6-difluoro-4-((2-fluoro-6-(pyrrolidin-1-ylmethyl)benzyl)amino)-N-(thiazol-4-yl)benzenesulfonamide formate]	15.2	–	–	–
COC1CN(Cc2cccc(F)c2CNc2cc(F)c(S(=O)(=O)Nc3cscn3)c(F)c2)C1 [Example 171, 2,6-difluoro-4-((2-fluoro-6-((3-methoxyazetidin-1-yl)methyl)benzyl)amino)-N-(thiazol-4-yl)benzenesulfonamide formate]	16.8	–	–	–
COc1ccc(F)c([C@H](C)Nc2cc(F)c(S(=O)(=O)Nc3cscn3)c(F)c2)c1 [Example 238, (S)-2,6-difluoro-4-((1-(2-fluoro-5-methoxyphenyl)ethyl)amino)-N-(thiazol-4-yl)benzenesulfonamide]	–	–	6.45	–
C[C@H](Nc1ccc(S(=O)(=O)Nc2cscn2)cc1C(F)(F)F)c1cc(F)ccc1F [Example 274, (S)-4-((1-(2,5-difluorophenyl)ethyl)amino)-N-(thiazol-4-yl)-3-(trifluoromethyl)benzenesulfonamide]	4.6	–	–	–
CCc1cc(S(=O)(=O)Nc2cscn2)c(F)cc1N[C@@H](C)c1cc(F)ccc1F [Example 297, (S)-4-((1-(2,5-difluorophenyl)ethyl)amino)-5-ethyl-2-fluoro-N-(thiazol-4-yl)benzenesulfonamide]	8.63	–	–	–
